Measurements: patent US8900194B2, “Microneedle devices and microneedle delivery apparatus” (3M Innovative Properties Company, priority 2002, dated 2014)

Settings: human, 0 h

## O=[N+]([O-])OCC(CO[N+](=O)[O-])O[N+](=O)[O-] [Nitroglycerin, nitroglycerin]
  Nitroglycerin Cumulative Flux: 0 μg/cm^2
